The subject of the experiment is cancer-related neuropathic pain. The experiment can be described thus: Open label dose escalation study of flupirtine, case studies JE and RM. The settings on record: RM; ketamine for six days prior to the flupirtine trial.

Drawing on patent US8268821B2, “Methods and compositions” (priority 2003, dated 2012), this text covers pain control for one compound.

The structures appear in SMILES notation.

`CNC1(c2ccccc2Cl)CCCCC1=O` (stereo not shown) [ketamine]: the pain control result was “failed to control pain”.
